Measurements taken from patent publication US20220054643A1, “SAPONIN CONJUGATED TO EPITOPE-BINDING PROTEINS” (priority 2018, published 2022).

Tests used:
HER14 cells = test: viability assay (MTT) with HER14 cells; assay type: cell-based; details: 0.1 nM dianthin-EGF in the presence of SA1641
Description: To test the efficacy of the invention, we conducted a viability assay with HER14 cells. These cells are fibroblasts stably transfected with the human epidermal growth factor receptor and therefore target cells for the targeted toxin dianthin-EGF. HER14 cells (2,000 cells/100 μL/well) were seeded into wells of 96-well-cell culture plates and incubated for 24 h in DMEM medium supplemented with 10% fetal calf serum and 1% penicillin/streptomycin at 37° C., 5% CO2 and 98% humidity. The different test substances (see results and FIG. 59) were then added in triplicates in a volume of 25 μL and supplemented with further 25 μL of medium. After an incubation of 72 h, 30 μL 3-(4,5-dimethylthiazol-2-yl)-2,5-diphenyltetrazolium bromide (0.5 mg/mL in water) was added per well and incubated for 2 h. Thereafter, the medium was carefully removed and replaced by an aqueous solution containing 10% (v/v) isopropanol, 5% (w/v) sodium dodecyl sulfate and 400 mM HCl, and incubated for 5 min. Solubilized formazan was photometrically quantitated at […] in a microplate reader (Spectra MAX 340 PC, Molecular Devices, Sunnyvale, Calif., USA). Untreated cells were normalized to 1 and all samples referred to the untreated control. Significance was determined by unpaired two-sample t-tests.

HeLa cells = test: cell viability assay (MTS); assay type: cell-based, human; details: for concentration above which toxicity is seen as single compound: without EGFdianthin
Description: (§1) After treatment the cells were incubated for 72 hr at 37° C. before the cell viability was determined by a MTS-assay, performed according to the manufacturer's instruction (CellTiter 96® AQueous One Solution Cell Proliferation Assay, Promega). Briefly, the MTS solution was diluted 20× in DMEM without phenol red (PAN-Biotech GmbH) supplemented with 10% FBS (PAN-Biotech GmbH). The cells were washed once with 200 μL PBS per well, after which 100 μL diluted MTS solution was added per well.
(§2) The plate was incubated for approximately 20-30 minutes at 37° C. Subsequently, the optical density at 492 nm was measured on a Thermo Scientific Multiskan FC plate reader (Thermo Scientific). For quantification the background signal of ‘medium only’ wells was subtracted from all other wells, before the ratio of untreated/treated cells was calculated, by dividing the background corrected signal of untreated wells over the background corrected signal of the treated wells.

A431 cells = assay type: cell-based, human; details: without EGFdianthin
Description: as §1, §2

A2058 cells = test: cell viability assay (MTS); assay type: cell-based, human; details: without EGFdianthin
Description: as §1, §2

[1] = pH dependent hydrolysis of the hydrazone bond (MALDI-TOF-MS); assay type: physicochemical; details: HCl solution at pH 3; MALDI-TOF-MS at two points in time
[2] = test system: SK-BR-3, JIMT-1, MDA-MB-468, A431, CaSki, HeLa, A2058; test: control treatments, relative cell viability on various cancer cell lines; assay type: cell-based, human; details: wide range of concentrations, up to 100.000 pM
Description: as §1, §2

Row | Compound | concentration above which toxicity is seen as single compound (HeLa cells) | concentration above which toxicity is seen as single compound (A431 cells) | concentration above which toxicity is seen as single compound (A2058 cells) | also measured
1 | C[C@@H]1O[C@@H](O[C@H]2[C@H](OC(=O)[C@]34CCC(C)(C)C[C@H]3C3=CC[C@@H]5[C@@]6(C)CC[C@H](O[C@H]7O[C@H](C(=O)O)[C@@H](O)[C@H](O[C@@H]8OC[C@@H](O)[C@H](O)[C@H]8O)[C@H]7O[C@@H]7O[C@H](CO)[C@H](O)[C@H](O)[C@H]7O)[C@@](C)(C=O)[C@@H]6CC[C@@]5(C)[C@]3(C)CC4)O[C@H](C)[C@H](O[C@@H]3O[C@H](C)[C@@H](O)[C@H](O)[C@H]3O)[C@@H]2O)[C@H](O)[C@H](O)[C@H]1O[C@@H]1OC[C@@H](O)[C@H](O[C@@H]2OC[C@@H](O)[C@H](O)[C@H]2O)[C@H]1O [SA1641] | – | – | – | cell viability (HER14 cells): death of all cells
2 | CC(=O)OC1C(C)OC(OC2C(C)OC(OC(=O)[C@]34CCC(C)(C)CC3C3=CCC5[C@@]6(C)CC[C@H](OC7OC(C(=O)O)C(O)C(OC8OCC(O)C(O)C8O)C7OC7OC(CO)C(O)C(O)C7O)[C@@](C)(/C=N/NC(=O)CCCCCN7C(=O)C=CC7=O)C6CC[C@@]5(C)[C@]3(C)C[C@H]4O)C(OC3OC(C)C(OC4OCC(O)C(OC5OC(CO)C(O)C(O)C5O)C4O)C(O)C3O)C2O)C(O)C1OC1OCC(O)C(O)C1O (stereo partly shown) [SO1861-EMCH] | > 25.000 nM | > 25.000 nM | > 25.000 nM | hydrolysis of the hydrazone bond [1]: gets cleaved
3 | CC(=O)OC1C(C)OC(OC2C(C)OC(OC(=O)[C@]34CCC(C)(C)CC3C3=CCC5[C@@]6(C)CC[C@H](OC7OC(C(=O)O)C(O)C(OC8OCC(O)C(O)C8O)C7OC7OC(CO)C(O)C(O)C7O)[C@@](C)(C=O)C6CC[C@@]5(C)[C@]3(C)C[C@H]4O)C(OC3OC(C)C(OC4OCC(O)C(OC5OC(CO)C(O)C(O)C5O)C4O)C(O)C3O)C2O)C(O)C1OC1OCC(O)C(O)C1O (stereo partly shown) [SO1861] | strong cell viability reduction | strong cell viability reduction | strong cell viability reduction | –
4 | CCN(CC)CCCC(C)Nc1ccnc2cc(Cl)ccc12 (stereo not shown) [chloroquine, reference compound] | – | – | – | effect on SO1861-mediated endosomal escape of dianthin-EGF and cell killing (HeLa cells; SO1861 + dianthin-EGF + 500 nM chloroquine / 500 nM PAMAM (native, thiolated, PEGylated) / 667 nM dendron): inhibit the SO1861-mediated endosomal escape
5 | saporin | – | – | – | influence on relative cell viability [2]: do not or hardly have any influence on cell viability
